{"source": "ChEMBL document CHEMBL4622917", "about": "“Structure Elucidation and Absolute Configuration Determination of Nortriterpenoids from Picramnia glazioviana” (J Nat Prod, 2020)", "key": {"MDA-MB-231 [1]": {"system": "MDA-MB-231", "assay": "Cytotoxicity against human MDA-MB-231 cells assessed as cell viability at 100 uM incubated for 48 hrs by MTT assay relative to control", "type": "functional", "conditions": "MDA-MB-231, 48 h, read-out: Activity"}, "SK-BR-3 [2]": {"system": "SK-BR-3", "assay": "Cytotoxicity against human SKBR3 cells assessed as cell viability at 100 uM incubated for 48 hrs by MTT assay relative to control", "type": "functional", "conditions": "SK-BR-3, 48 h, read-out: Activity"}, "A549 [3]": {"system": "A549", "assay": "Cytotoxicity against human A549 cells assessed as cell viability at 100 uM incubated for 48 hrs by MTT assay relative to control", "type": "functional", "conditions": "A549, 48 h, read-out: Activity"}, "MDA-MB-231 [4]": {"system": "MDA-MB-231", "assay": "Cytotoxicity against human MDA-MB-231 cells incubated for 48 hrs by MTT assay", "type": "functional, cell-based", "conditions": "MDA-MB-231, 48 h"}, "SK-BR-3 [5]": {"system": "SK-BR-3", "assay": "Cytotoxicity against human SKBR3 cells incubated for 48 hrs by MTT assay", "type": "functional, cell-based", "conditions": "SK-BR-3, 48 h"}, "A549 [6]": {"system": "A549", "assay": "Cytotoxicity against human A549 cells incubated for 48 hrs by MTT assay", "type": "functional, cell-based", "conditions": "A549, 48 h"}, "MDA-MB-231 [7]": {"system": "MDA-MB-231", "assay": "Cytotoxicity against human MDA-MB-231 cells assessed as reduction in cell viability at 50 to 100 uM incubated for 48 hrs by MTT assay relative to control", "type": "functional, cell-based"}, "A549 [8]": {"system": "A549", "assay": "Cytotoxicity against human A549 cells assessed as reduction in cell viability at 25 to 100 uM incubated for 48 hrs by MTT assay relative to control", "type": "functional, cell-based"}, "MDA-MB-231 [9]": {"system": "MDA-MB-231", "assay": "Cytotoxicity against human MDA-MB-231 cells assessed as reduction in cell viability at 25 to 100 uM incubated for 48 hrs by MTT assay relative to control", "type": "functional, cell-based"}, "MDA-MB-231 [10]": {"system": "MDA-MB-231", "assay": "Cytotoxicity against human MDA-MB-231 cells assessed as reduction in cell viability at 12.5 to 100 uM incubated for 48 hrs by MTT assay relative to control", "type": "functional, cell-based"}, "MDA-MB-231 [11]": {"system": "MDA-MB-231", "assay": "Cytotoxicity against human MDA-MB-231 cells assessed as reduction in cell viability at 25 to 50 uM incubated for 48 hrs by MTT assay relative to control", "type": "functional, cell-based"}}, "note": "The source made the active and inactive calls. The rule behind the calls is not given here.", "data": [{"smiles": "COC(=O)CC(C)(C)[C@H](C(=O)OC)C1=C2CC[C@@H]3[C@@]45COC(=O)C[C@@H]4OC(C)(C)[C@@H]5C[C@@H](OC(=O)c4ccccc4)[C@@]3(C)[C@]2(C)CCC1=O", "values": [{"measurement": "viability at 100 µM", "setting": "MDA-MB-231 [1]", "result": "> 50", "unit": "%"}, {"measurement": "viability at 100 µM", "setting": "SK-BR-3 [2]", "result": "> 50", "unit": "%"}, {"measurement": "viability at 100 µM", "setting": "A549 [3]", "result": "> 50", "unit": "%"}, {"measurement": "IC50", "setting": "MDA-MB-231 [4]", "result": "> 10", "unit": "µM"}, {"measurement": "IC50", "setting": "SK-BR-3 [5]", "result": "> 10", "unit": "µM"}, {"measurement": "IC50", "setting": "A549 [6]", "result": "> 10", "unit": "µM"}]}, {"smiles": "COC(=O)[C@H](C1=C2C=C[C@@H]3[C@@]45COC(=O)C[C@@H]4OC(C)(C)[C@@H]5C[C@@H](OC(=O)c4ccccc4)[C@@]3(C)[C@]2(C)CCC1=O)C(C)(C)CC(=O)O", "values": [{"measurement": "viability at 100 µM", "setting": "MDA-MB-231 [1]", "result": "> 50", "unit": "%"}, {"measurement": "viability at 100 µM", "setting": "SK-BR-3 [2]", "result": "> 50", "unit": "%"}, {"measurement": "viability at 100 µM", "setting": "A549 [3]", "result": "> 50", "unit": "%"}, {"measurement": "Activity", "setting": "MDA-MB-231 [7]", "result": "Active"}, {"measurement": "IC50", "setting": "MDA-MB-231 [4]", "result": "> 10", "unit": "µM"}, {"measurement": "IC50", "setting": "SK-BR-3 [5]", "result": "> 10", "unit": "µM"}, {"measurement": "IC50", "setting": "A549 [6]", "result": "> 10", "unit": "µM"}]}, {"smiles": "CC1(C)O[C@H]2CC(=O)OC[C@]23[C@H]2CCC4=C([C@H]5CCC(=O)O5)C(=O)CC[C@@]4(C)[C@]2(C)CC[C@@H]13", "values": [{"measurement": "viability at 100 µM", "setting": "MDA-MB-231 [1]", "result": "> 50", "unit": "%"}, {"measurement": "viability at 100 µM", "setting": "SK-BR-3 [2]", "result": "> 50", "unit": "%"}, {"measurement": "viability at 100 µM", "setting": "A549 [3]", "result": "> 50", "unit": "%"}, {"measurement": "IC50", "setting": "MDA-MB-231 [4]", "result": "> 10", "unit": "µM"}, {"measurement": "IC50", "setting": "SK-BR-3 [5]", "result": "> 10", "unit": "µM"}, {"measurement": "IC50", "setting": "A549 [6]", "result": "> 10", "unit": "µM"}]}, {"smiles": "COC(=O)CC(C)(C)[C@H](C(=O)OC)C1=C2CC[C@@H]3[C@@]45COC(=O)C[C@@H]4OC(C)(C)[C@@H]5CC[C@@]3(C)[C@]2(C)CCC1=O", "values": [{"measurement": "viability at 100 µM", "setting": "MDA-MB-231 [1]", "result": "> 50", "unit": "%"}, {"measurement": "viability at 100 µM", "setting": "SK-BR-3 [2]", "result": "> 50", "unit": "%"}, {"measurement": "viability at 100 µM", "setting": "A549 [3]", "result": "> 50", "unit": "%"}, {"measurement": "Activity", "setting": "MDA-MB-231 [7]", "result": "Active"}, {"measurement": "Activity", "setting": "A549 [8]", "result": "Active"}, {"measurement": "IC50", "setting": "MDA-MB-231 [4]", "result": "> 10", "unit": "µM"}, {"measurement": "IC50", "setting": "SK-BR-3 [5]", "result": "> 10", "unit": "µM"}, {"measurement": "IC50", "setting": "A549 [6]", "result": "> 10", "unit": "µM"}]}, {"smiles": "CC1(C)O[C@H]2CC(=O)OC[C@]23[C@H]2CCC4=C([C@H]5CCC(=O)O5)C(=O)CC[C@@]4(C)[C@]2(C)[C@H](OC(=O)c2ccccc2)C[C@@H]13", "values": [{"measurement": "viability at 100 µM", "setting": "MDA-MB-231 [1]", "result": "> 50", "unit": "%"}, {"measurement": "viability at 100 µM", "setting": "SK-BR-3 [2]", "result": "> 50", "unit": "%"}, {"measurement": "viability at 100 µM", "setting": "A549 [3]", "result": "> 50", "unit": "%"}, {"measurement": "Activity", "setting": "MDA-MB-231 [9]", "result": "Active"}, {"measurement": "IC50", "setting": "MDA-MB-231 [4]", "result": "> 10", "unit": "µM"}, {"measurement": "IC50", "setting": "SK-BR-3 [5]", "result": "> 10", "unit": "µM"}, {"measurement": "IC50", "setting": "A549 [6]", "result": "> 10", "unit": "µM"}]}, {"smiles": "CC1(C)O[C@H]2CC(=O)OC[C@]23[C@H]2CCC4=C([C@@H]5CCC(=O)O5)C(=O)CC[C@@]4(C)[C@]2(C)[C@H](OC(=O)c2ccccc2)C[C@@H]13", "values": [{"measurement": "viability at 100 µM", "setting": "MDA-MB-231 [1]", "result": "> 50", "unit": "%"}, {"measurement": "viability at 100 µM", "setting": "SK-BR-3 [2]", "result": "> 50", "unit": "%"}, {"measurement": "viability at 100 µM", "setting": "A549 [3]", "result": "> 50", "unit": "%"}, {"measurement": "Activity", "setting": "MDA-MB-231 [10]", "result": "Active"}, {"measurement": "IC50", "setting": "MDA-MB-231 [4]", "result": "> 10", "unit": "µM"}, {"measurement": "IC50", "setting": "SK-BR-3 [5]", "result": "> 10", "unit": "µM"}, {"measurement": "IC50", "setting": "A549 [6]", "result": "> 10", "unit": "µM"}]}, {"smiles": "COC(=O)[C@@H]1C2=C(CC[C@]3(C)C2=CC[C@@H]2[C@@]45COC(=O)C[C@@H]4OC(C)(C)[C@@H]5C[C@@H](O)[C@]23C)OC(=O)CC1(C)C", "values": [{"measurement": "viability at 100 µM", "setting": "MDA-MB-231 [1]", "result": "> 50", "unit": "%"}, {"measurement": "viability at 100 µM", "setting": "SK-BR-3 [2]", "result": "> 50", "unit": "%"}, {"measurement": "viability at 100 µM", "setting": "A549 [3]", "result": "> 50", "unit": "%"}, {"measurement": "IC50", "setting": "MDA-MB-231 [4]", "result": "> 10", "unit": "µM"}, {"measurement": "IC50", "setting": "SK-BR-3 [5]", "result": "> 10", "unit": "µM"}, {"measurement": "IC50", "setting": "A549 [6]", "result": "> 10", "unit": "µM"}]}, {"smiles": "COC(=O)[C@H](C1=C2[C@H]3O[C@H]3[C@@H]3[C@@]45COC(=O)C[C@@H]4OC(C)(C)[C@@H]5C[C@@H](OC(=O)c4ccccc4)[C@@]3(C)[C@]2(C)CCC1=O)C(C)(C)CC(=O)O", "values": [{"measurement": "viability at 100 µM", "setting": "MDA-MB-231 [1]", "result": "> 50", "unit": "%"}, {"measurement": "viability at 100 µM", "setting": "SK-BR-3 [2]", "result": "> 50", "unit": "%"}, {"measurement": "viability at 100 µM", "setting": "A549 [3]", "result": "> 50", "unit": "%"}, {"measurement": "Activity", "setting": "MDA-MB-231 [11]", "result": "Active"}, {"measurement": "IC50", "setting": "MDA-MB-231 [4]", "result": "> 10", "unit": "µM"}, {"measurement": "IC50", "setting": "SK-BR-3 [5]", "result": "> 10", "unit": "µM"}, {"measurement": "IC50", "setting": "A549 [6]", "result": "> 10", "unit": "µM"}]}]}
